Data on five compounds can be found in US20170348381A1, “FORMULATION” (NovaBiotics Limited, priority 2016, published 2017).

Bounds are passed on as bounds.

One may read the MIC as the smallest concentration in the dilution series that meets the test's criterion for growth inhibition.

What all share (format): cell-based
Test [1] has as its system C. albicans. Nature of the test: Neutral, additive or synergistic effect of combinations of novamycin plus other antifungal agents, Example 3. The following applies: for Antifungal MIC100: antifungal alone; for MIC100 in Combination, AF: antifungal in combination with Novamycin; for Effect: combination of the antifungal with Novamycin. Here is the method:
(§1) Antimicrobial susceptibility testing was performed based on CLSI approved standards M27-A3 and M38-A2. The effects of antimicrobial combinations were evaluated using a chequerboard method (Burkhart et al., 2006) in CLSI conditions.
(§2) The neutral, additive or synergistic effect of combinations of novamycin plus other antifungal agents was studied.

Test [2] deals with A. fumigatus. Described as above. The conditions noted are these: for Antifungal MIC100: antifungal alone; for MIC100 in Combination, AF: antifungal in combination with Novamycin; for Effect: combination of the antifungal with Novamycin. On the procedure:
as §1, §2

The test system of test [3] is C. albicans. Nature of the test: Antimicrobial susceptibility testing (CLSI M27-A3/M38-A2, chequerboard), MIC100, Example 2. The following applies: for MIC: Candida albicans; for MIC100 of the antifungal in combination with Novamycin (+): in combination with MIC100 and sub-MIC100 concentrations of Novamycin. Here is the method:
as §1
(§3) Table 1. The MIC100 of clinically used antifungals individually (−) and in combination (+) with Novamycin®.
(§4) (−)=MIC100 (μg/mL) of the antifungal alone (+)=MIC100 (μg/mL) of the antifungal in combination with Novamycin®—=Not analysed

Test [4] deals with A. fumigatus. The description is as above. The following applies: for MIC: Aspergillus fumigatus; for MIC100 of the antifungal in combination with Novamycin (+): in combination with MIC100 and sub-MIC100 concentrations of Novamycin. Here is the method:
as §1, §3, §4

A further test concerns E. dermatitidis. Described as above. The conditions noted are these: for MIC: Exophiala dermatitidis; for MIC100 of the antifungal in combination with Novamycin (+): in combination with MIC100 and sub-MIC100 concentrations of Novamycin. Here is the method: as §1, §3, §4

On to `CC[C@@H]([C@H](C)O)n1ncn(-c2ccc(N3CCN(c4ccc(OC[C@@H]5CO[C@@](Cn6cncn6)(c6ccc(F)cc6F)C5)cc4)CC3)cc2)c1=O` [PCZ, pozaconazole], for which the Antifungal MIC100 with C. albicans [1] is less than 0.03 µg/mL; with A. fumigatus [2] it was 0.25 µg/mL. For the same compound, the MIC100 in Combination, AF was less than 0.03 µg/mL in the test with C. albicans [1] and 0.125 µg/mL with A. fumigatus [2]. Moreover, the Effect entry with C. albicans [1] was “Neutral”; in the test with A. fumigatus [2] it was “Additive”. In addition, the minimum inhibitory concentration (MIC) turned out to be 0.13 µg/mL in the test on C. albicans [3] (antifungal alone) and 0.25 µg/mL in the test on A. fumigatus [4] (antifungal alone). The “MIC100 of the antifungal in combination with Novamycin (+)” value (“MIC100 of the antifungal in combination” for short) in the test on C. albicans [3] came out at 0.06 µg/mL; in the test on A. fumigatus [4], 0.125 µg/mL.
Regarding `CC[C@H](C)C[C@H](C)CCCCCCCCC(=O)N[C@H]1C[C@@H](O)[C@@H](NCCN)NC(=O)[C@@H]2[C@@H](O)CCN2C(=O)[C@H]([C@H](O)CCN)NC(=O)[C@H]([C@H](O)[C@@H](O)c2ccc(O)cc2)NC(=O)[C@@H]2C[C@@H](O)CN2C(=O)[C@H]([C@@H](C)O)NC1=O` [CFN, caspofungin], the results for the Antifungal MIC100 in the test with C. albicans [1] and in the test with A. fumigatus [2] were 0.5 µg/mL and 0.06 µg/mL, respectively. The MIC100 in Combination, AF in the test with C. albicans [1] worked out at 0.03 µg/mL; in the test with A. fumigatus [2] it was 0.04 µg/mL. The Effect entry with C. albicans [1] and in the test on A. fumigatus [2] was “Additive” throughout. For the same compound, the MIC in the test with C. albicans [3] (antifungal alone) is 0.5 µg/mL; with A. fumigatus [4] (antifungal alone), 0.06 µg/mL; in the test with E. dermatitidis (antifungal alone), 31.2 µg/mL. Further, the “MIC100 of the antifungal in combination” value in the test on C. albicans [3] is 0.03 µg/mL; with A. fumigatus [4], 0.06 µg/mL; in the test with E. dermatitidis, 3.94 µg/mL.
Take `C[C@@H](c1ncncc1F)[C@](O)(Cn1cncn1)c1ccc(F)cc1F` [Voriconazole]: in the test on A. fumigatus [2], the Antifungal MIC100 was determined as 0.25 µg/mL; the MIC100 in Combination, AF stood at 0.25 µg/mL; the Effect result is on record as “Neutral”.
For the compound `C[C@@H]1[C@H](O)[C@@H](C)/C=C/C=C/C=C/C=C/C=C/C=C/C=C/[C@H](O[C@@H]2O[C@H](C)[C@@H](O)[C@H](N)[C@@H]2O)C[C@@H]2O[C@](O)(C[C@@H](O)C[C@@H](O)[C@H](O)CC[C@@H](O)C[C@@H](O)CC(=O)O[C@H]1C)C[C@H](O)[C@H]2C(=O)O` [AmB, amphotericin B], the Antifungal MIC100 was 0.5 µg/mL in the test with C. albicans [1] and 0.25 µg/mL in the test with A. fumigatus [2]. Moreover, the MIC100 in Combination, AF amounted to 0.05 µg/mL in the test with C. albicans [1] and 0.03 µg/mL with A. fumigatus [2]. For the same compound, the Effect entry in the test on C. albicans [1] and with A. fumigatus [2] was “Additive” in each case. For the same compound, the “MIC100 of the antifungal alone (−)” value was determined as 0.25 µg/mL in the test with C. albicans [3] (antifungal alone), 0.25 µg/mL in the test on A. fumigatus [4] (antifungal alone) and 1 µg/mL with E. dermatitidis (antifungal alone). Moreover, the “MIC100 of the antifungal in combination” value turned out to be 0.13 µg/mL in the test on C. albicans [3], 0.03 µg/mL with A. fumigatus [4] and 0.12 µg/mL with E. dermatitidis.
As to `CCC(C)n1ncn(-c2ccc(N3CCN(c4ccc(OCC5COC(Cn6cncn6)(c6ccc(Cl)cc6Cl)O5)cc4)CC3)cc2)c1=O` (stereo not drawn) [ITZ, itraconazole], the MIC in the test on E. dermatitidis (antifungal alone) was determined as 4 µg/mL. Also, the “MIC100 of the antifungal in combination” value in the test on E. dermatitidis worked out at 2 µg/mL.
